Target: Urease (Canavalia ensiformis, UniProt P07374)
Assay: Inhibition of jack bean urease using urea as substrate assessed as ammonia production after 15 mins by Weatherburn assay

Sequence of Urease (P07374 whole entry): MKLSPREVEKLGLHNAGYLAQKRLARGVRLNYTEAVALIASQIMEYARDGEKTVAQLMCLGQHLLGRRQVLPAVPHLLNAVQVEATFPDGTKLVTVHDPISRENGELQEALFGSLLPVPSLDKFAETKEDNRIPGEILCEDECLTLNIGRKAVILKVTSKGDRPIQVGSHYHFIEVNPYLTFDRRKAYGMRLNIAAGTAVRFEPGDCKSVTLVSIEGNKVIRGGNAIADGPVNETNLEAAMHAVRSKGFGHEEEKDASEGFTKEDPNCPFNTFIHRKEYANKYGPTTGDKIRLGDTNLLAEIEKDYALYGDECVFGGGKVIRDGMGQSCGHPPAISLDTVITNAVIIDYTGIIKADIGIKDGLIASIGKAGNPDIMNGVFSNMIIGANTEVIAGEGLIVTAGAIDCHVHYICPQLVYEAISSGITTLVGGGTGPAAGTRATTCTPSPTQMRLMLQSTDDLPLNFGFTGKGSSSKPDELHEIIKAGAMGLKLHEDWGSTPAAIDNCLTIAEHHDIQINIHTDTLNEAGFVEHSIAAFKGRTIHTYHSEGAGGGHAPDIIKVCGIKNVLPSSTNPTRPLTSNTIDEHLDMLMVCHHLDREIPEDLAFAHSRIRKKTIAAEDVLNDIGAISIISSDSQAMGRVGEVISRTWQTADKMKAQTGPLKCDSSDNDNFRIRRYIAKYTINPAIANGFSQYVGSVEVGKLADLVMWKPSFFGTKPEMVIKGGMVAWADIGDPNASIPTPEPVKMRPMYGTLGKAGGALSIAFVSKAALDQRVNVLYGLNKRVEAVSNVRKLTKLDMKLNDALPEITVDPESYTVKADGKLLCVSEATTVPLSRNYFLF

Row | Structure (SMILES) | IC50 [µM]
1 | O=C1Nc2ccc(Cl)cc2/C1=C\c1ccc(C(=O)N/N=C/c2c(O)cc(O)cc2O)cc1 | 13
2 | C/C(=N\NC(=O)c1ccc(/C=C2/C(=O)Nc3ccc(Cl)cc32)cc1)c1c(O)cc(O)cc1O | 35.4
3 | O=C1Nc2ccc(Cl)cc2/C1=C\c1ccc(C(=O)N/N=C/c2ccc(O)cc2O)cc1 | 42.9
4 | O=C1Nc2ccc(Cl)cc2/C1=C\c1ccc(C(=O)N/N=C/c2cc(O)ccc2O)cc1 | 53.2
5 | O=C1Nc2ccc(Cl)cc2/C1=C\c1ccc(C(=O)N/N=C/c2cc(O)c(O)cc2O)cc1 | 126
6 | O=C1Nc2ccc(Cl)cc2/C1=C\c1ccc(C(=O)N/N=C/c2ccc(O)c(O)c2)cc1 | 70.8
7 | O=C1Nc2ccc(Cl)cc2/C1=C\c1ccc(C(=O)N/N=C/c2cc(O)cc(O)c2)cc1 | 19.2
8 | O=C1Nc2ccc(Cl)cc2/C1=C\c1ccc(C(=O)N/N=C/c2cccc(O)c2O)cc1 | 109
9 | O=C1Nc2ccc(Cl)cc2/C1=C\c1ccc(C(=O)N/N=C/c2cccc(O)c2)cc1 | 102
10 | O=C1Nc2ccc(Cl)cc2/C1=C\c1ccc(C(=O)N/N=C/c2ccc(O)cc2)cc1 | 84.8
11 | O=C1Nc2ccc(Cl)cc2/C1=C\c1ccc(C(=O)N/N=C/c2ccccc2O)cc1 | 120
12 | COc1ccc(/C=N/NC(=O)c2ccc(/C=C3/C(=O)Nc4ccc(Cl)cc43)cc2)cc1 | 144
13 | O=C1Nc2ccc(Cl)cc2/C1=C\c1ccc(C(=O)N/N=C/c2ccc(Cl)cc2)cc1 | 111
14 | C/C(=N\NC(=O)c1ccc(/C=C2/C(=O)Nc3ccc(Cl)cc32)cc1)c1ccccc1O | 71.8
15 | COc1ccc(/C=N/NC(=O)c2ccc(/C=C3/C(=O)Nc4ccc(Cl)cc43)cc2)c(O)c1 | 145
16 | COc1ccc(O)c(/C=N/NC(=O)c2ccc(/C=C3/C(=O)Nc4ccc(Cl)cc43)cc2)c1 | 82
17 | O=C1Nc2ccc(Cl)cc2/C1=C\c1ccc(C(=O)N/N=C/c2ccc([N+](=O)[O-])cc2)cc1 | 92.4
18 | O=C1Nc2ccc(Cl)cc2/C1=C\c1ccc(C(=O)N/N=C/c2cccc([N+](=O)[O-])c2)cc1 | 148
19 | CC(=O)NO [ACETOHYDROXAMIC ACID] | 42

Reference: ChEMBL document CHEMBL3600348, “Synthesis of novel derivatives of oxindole, their urease inhibition and molecular docking studies” (Bioorg Med Chem Lett, 2015)
